Assay results reported in patent US20240100081A1, “COMPOSITIONS AND METHODS FOR TREATING AGE-RELATED MACULAR DEGENERATION AND GEOGRAPHIC ATROPHY” (University of Virginia Patent Foundation, priority 2017, published 2024).

What was measured:
IL-18 = IL-18 secretion ELISA, mouse RPE cells; assay type: cell-based; details: Casp11−/− and Mb21d1−/− mouse RPE cells; LPS-primed, MSU 250 μg/ml
Method: Secreted human and mouse interferon-β and IL-18 in the media were detected using the ELISA kits (mouse IFN-β, R&D Systems Cat #42400-1; mouse IL-18, R&D Systems Cat #7625; human IFN-β, R&D Systems Cat #41410; human IL-18, R&D systems Cat #DY318-05) according to the manufacturer's instructions. Primary mouse cells cultured as above. WT, Gsdmd^−/−, Casp11^−/−, and Mb21d1^−/− mouse RPE cells were seeded at a density of 250,000 cells/well in a 12-well plate. When confluency reached 60-70%, cells were transfected with 20 pmol of in vitro transcribed Alu RNA or mock using Lipofectamine 2000 reagent (Life Technologies, Carlsbad, CA) following the manufacturer protocol. Media was collected to detect secreted cytokine content at 8 to 24 h post-transfection. For examining the induction of IL-18 secretion by monosodium urate (MSU) crystals (Invivogen Cat #tlrl-msu), mouse RPE cells were primed with LPS (500 ng/ml) for 6 h and exposed to MSU (250 μg/ml) for 16 h, and media were collected to detect secreted cytokine.

RPE [1] = details: earlier demonstration (refs 2, 21); cited from earlier work
IFNB mRNA = IFNB mRNA real-time PCR, human RPE cells; assay type: cell-based; details: lentiviral shRNA
Method: Real-time PCR Total RNA purified from cell using Trizol reagent (Invitrogen) following manufacturer's recommendation was DNase treated and reverse transcribed using […]® Reverse Transcription kit (QIAGEN). The RT products (cDNA) were amplified by real-time quantitative PCR (Applied Biosystems 7900 HT Fast Real-Time PCR system) with Power SYBR green Master Mix. Relative gene expression was determined by 2^−ΔΔCt t method using 18S rRNA or GAPDH as internal control. Primers were used as described in the provisional patent application from which this application depends and as in Kerur et al., 2018, Nature, the publication resulting from the data in the provisional application. The primers were for human IFNB1, CASP4, DICER, cGAS, 18s rRNA, mitochondrial DNA, GAPDH, and GSDMD, MIP1α, IL6, IL8, and mouse Ifnb1, Gapdh, 18s rRNA, and mitochondrial DNA.
Lentivirus articles were either produced by the University of Kentucky Viral Production Core facilities or in house. Lentivirus vector plasmids expressing scrambled sequences or shRNA sequences targeting human caspase-4 and cGAS were purchased (MISSION®shRNA, Sigma-Aldrich) to produce lentiviral particles. Human RPE cells at passage 3 were incubated with lentiviral particles at multiplicity of infection (MOI) of 5 overnight in regular growth media containing polybrene (4 μg/ml). […] Knockdown of the target proteins was determined by immunoblotting.

caspase-4 = experiment: Caspase-4 activation (p30) immunoblot in human RPE cells; assay type: cell-based; details: lentiviral shRNA
Method: (§1) Cell and tissue lysates prepared in RIPA buffer where homogenized by sonication. Protein concentration was determined using Pierce BCA Protein Assay Kit (Thermo Fisher Scientific Inc.). Equal quantity of protein (10-50 μg) prepared in Laemmli buffer were resolved by SDS-PAGE on NOVEX® Tris-Glycine Gels (Invitrogen), and transferred onto Immobilon-FL PVDF membranes (Millipore). The transferred membranes were blocked in ODYSSEY® Blocking Buffer (PBS) or 5% nonfat dry skim milk for 1 hour at RT and then incubated with primary antibody at 4° C. overnight. The immunoreactive bands were visualized with help of species specific secondary antibodies conjugated with IRDYE® or HRP. The blot image were either captured on ODYSSEY® imaging systems or on an autoradiography film. […]

caspase-1 = experiment: Caspase-1 activation (p20) immunoblot in human RPE cells; assay type: cell-based; details: lentiviral shRNA
Method: as §1
Lentivirus articles were either produced by the University of Kentucky Viral Production Core facilities or in house. […] Knockdown of the target proteins was determined by immunoblotting.

STAT2 = STAT2 phosphorylation immunoblot, human RPE cells; assay type: cell-based; details: lentiviral shRNA
Method: as §1

cGAS = target: T1, cGAS (Mus musculus, UniProt Q8C6L5); experiment: cGAS-mtDNA interaction immunoprecipitation assay (HA-cGAS MEFs); assay type: cell-based; details: HA-cGAS reconstituted Mb21d1−/− MEFs
T1 construct: expressed in transfected cells
T1 sequence (Q8C6L5 whole entry): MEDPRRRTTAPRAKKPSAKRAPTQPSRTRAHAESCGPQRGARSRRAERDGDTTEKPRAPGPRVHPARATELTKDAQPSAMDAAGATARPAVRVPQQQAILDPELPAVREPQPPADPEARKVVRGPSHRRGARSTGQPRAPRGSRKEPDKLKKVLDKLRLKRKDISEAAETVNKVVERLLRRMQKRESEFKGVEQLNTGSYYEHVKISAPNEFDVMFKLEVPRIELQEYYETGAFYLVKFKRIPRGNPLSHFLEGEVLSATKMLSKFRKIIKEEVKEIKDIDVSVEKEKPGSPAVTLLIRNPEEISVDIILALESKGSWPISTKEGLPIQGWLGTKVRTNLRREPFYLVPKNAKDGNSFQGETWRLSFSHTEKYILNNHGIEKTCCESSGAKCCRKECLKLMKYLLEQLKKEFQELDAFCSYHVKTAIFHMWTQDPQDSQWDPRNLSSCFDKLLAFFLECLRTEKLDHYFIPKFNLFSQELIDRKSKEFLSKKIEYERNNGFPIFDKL
Description: Immortalized cGAS^−/− mouse embryonic fibroblasts (MEF) reconstituted with HA-tagged mouse cGAS (HA-cGAS) were described earlier^28. Interaction between mtDNA and cGAS was monitored using Express Chromatin Immunoprecipitation Kit (Active Motif, CHIP-IT® Express, cat #53008). Briefly mock, Alu RNA, poly I: C or plasmid DNA (pUC19) transfected HA-cGAS reconstituted cGAS^−/− MEFs were fixed with 1% formaldehyde per manufacturer's instructions. The cells were then lysed by sonication in the shearing buffer, centrifuged for 10 min at 18,000 g in a 4° C. microfuge. The supernatant containing the cell lysate was collected and cGAS was immunoprecipitated from each sample using anti-HA tag antibody (Abcam, cat #ab9110). DNA in the IP was eluted, reverse crosslinked and purified using Chromatin IP DNA Purification Kit (Active Motif, cat #58002). Purified DNA was analyzed by qPCR using mouse mtDNA specific primer pairs.

RPE [2] = experiment: Alu-induced RPE degeneration in mice (subretinal injection; fundus photography, ZO-1 flat mounts); assay type: in vivo, mouse; details: Gsdmd−/− mice
Method: Alu-mediated RPE degeneration was induced by exposing mice to Alu RNA as previously described^14-18. Seven days later, RPE health was assessed by fundus photography and immunofluorescence staining of zonula occludens-1 (ZO-1) on RPE flat mounts (whole mount of posterior eye cup containing RPE and choroid layers). Mouse RPE and choroid flat mounts were fixed with 4% paraformaldehyde or 100% methanol, stained with rabbit polyclonal antibodies against mouse ZO-1 (1:100, Invitrogen), and visualized with Alexa-594 (Invitrogen). All images were obtained by microscopy (model SP-5, Leica; or Axio Observer Z1, Zeiss). Imaging was performed by an operator masked to the group assignments.
Binary Assignment: Healthy RPE cells form a polygonal tessellation with a principally hexagonal “honeycomb” formation. RPE degeneration was assessed as a disruption of this uniformity of this polygonal sheet. Thus, RPE health was assessed as the presence or absence of morphological disruption in RPE flat mounts by two independent raters who were masked to the group assignments. […] Inter-rater reliability was measured by agreement on assignments, Pearson coefficient of determination, and Fleiss κ. […]
Cellular Morphometry: Quantifying cellular morphometry for hexagonally packed cells was performed in semi-automated fashion by three masked graders by adapting our previous analysis of corneal endothelial cell density^19. […]

RPE [3] = experiment: RPE flat mount annexin V/PI staining in mice; details: Alu RNA-treated Gsdmd−/− mice

Compound: O=c1[nH]c(=O)c2[nH]c([O-])nc2[nH]1.[Na+] [MSU, monosodium urate]
- IL-18 secretion (IL-18): unaffected

Compound: NCC(=O)O [glycine]
- effect on Alu RNA-induced RPE degeneration (RPE [1]): neither necrostatin-1, an inhibitor of primary necrosis^39, nor glycine, an inhibitor of pyroptosis^40, blocks

Compound: CN1C(=O)C(Cc2c[nH]c3ccccc23)NC1=S (stereo not shown) [necrostatin-1]
- effect on Alu RNA-induced RPE degeneration (RPE [1]): neither necrostatin-1, an inhibitor of primary necrosis^39, nor glycine, an inhibitor of pyroptosis^40, blocks

Compound: cGAS shRNA: shRNA against cGAS, Sigma-Aldrich TRCN0000150010, SEQ ID NO: 15 (guide CCGGCCTGCTGTAACACTTCTTATTCTCGAGAATAAGAAGTGTTACAGCAGGTTTTTTG; listed as Homo sapiens)
- effect on DICER1 AS-induced IFNB mRNA (IFNB mRNA): markedly depressed
- effect on Alu RNA-induced activation of caspase-4 (p30 subunit) (caspase-4): suppressed
- effect on Alu RNA-induced activation of caspase-1 (p20 subunit) (caspase-1): suppressed
- effect on Alu RNA-induced phosphorylation of STAT2 (STAT2): suppressed

Compound: poly(I:C)
- enrichment of mtDNA in cGAS immunoprecipitate (cGAS): not

Compound: recIL-18: recombinant mature IL-18 (MBL Cat #B002-5)
- resistance to Alu RNA-induced RPE degeneration (RPE [2]): overcome
- annexin-V / PI staining of RPE flat mounts (RPE [3]): numerous annexin-V^+ PI^− cells
